Measurements taken from PubChem BioAssay AID489033 (Sanford-Burnham Center for Chemical Genomics, 2010).
Active and inactive are the calls of the source. How the calls were made is not given here.

Test system: 697B B-cell line, NF-kB luciferase reporter luminescence
Assay: NF-kB reporter inhibition in B cells, dose response, selectivity assay for T-cell antigen receptor NF-kB inhibitors, 697B cells, luminescence (AID 489033)

With `Cc1cc(C)c2nc(C)cc(N/N=C/c3ccc(O)cc3)c2c1` as the compound, how does the IC50 read?
The IC50 was 3.49 µM.

`CCc1ccc(N2C(=O)C(Cl)=C(Nc3ccc(C(=O)N4CCCC4)cc3)C2=O)cc1` was tested. Which IC50 did it give?
The IC50 was 2.28 µM.

For `O=C1CC(c2cc(F)ccc2F)c2cc3c(cc2N1)CCC3` (configuration not stated), which IC50 is on record?
Its IC50 is > 80 µM (inactive).

Which IC50 does the source give for `CCCCCCCCCCCCCCCC[n+]1ccc(/C=N/O)cc1` here?
The IC50 was 13 µM.

How did the IC50 turn out when `CCCCCCCOc1ccc(OC(=O)c2ccncc2)cc1` was run?
Its IC50 is > 80 µM (inactive).

For `CC(C)c1oc(=O)cc2c1[C@@H](O)[C@H]1OC(=O)[C@@]3(C)C[C@@H](O)[C@@H](O)[C@@]2(C)C13` (some centres not stated), which IC50 is on record?
Its IC50 is 7.2 µM.

With `O=C1C=CC(O)(c2cc(=O)c3c(O)cc(O)cc3o2)C=C1` as the compound, how does the IC50 read?
The IC50 was 1.62 µM.

How did the IC50 turn out when `CN(C)c1ccc2c(c1)OC(N)=C(C#N)C2c1cccc(F)c1` (configuration not stated) was run?
Its IC50 is > 80 µM (inactive).

With `COc1cccc(N2CCN(C(=O)c3cn(Cc4ccccc4)nc3-c3cccnc3)CC2)c1` as the compound, how does the IC50 read?
The IC50 was > 80 µM (inactive).

How did the IC50 turn out when `COc1ccc2nc(C)cc(N/N=C/c3ccc(F)cc3)c2c1` was run?
The IC50 was 2.08 µM.

With `Cc1cc(C)cc(C(=O)N2CC(=O)Nc3ccccc32)c1` as the compound, how does the IC50 read?
Its IC50 is > 80 µM (inactive).

For `O=C(Nc1ccccc1Cl)/C(Cl)=C(\Cl)S(=O)c1ccccc1` (configuration not stated), which IC50 is on record?
The IC50 was 0.53 µM.

With `CCOC(=O)COc1cccc2c(=O)n(CC(=O)NCc3ccccc3)ccc12` as the compound, how does the IC50 read?
The IC50 was > 80 µM (inactive).

With `Cc1ccc(/C=N/NC(=O)c2c(C)nc3ccc(Br)cn23)cc1` as the compound, how does the IC50 read?
The IC50 was > 80 µM (inactive).

`C=CCNC(=S)N/N=C(\C)c1ccccn1` was tested. Which IC50 did it give?
The IC50 was 0.61 µM.

How did the IC50 turn out when `CCCC(=O)NC(c1ccc(OC)cc1)c1ccc2cccnc2c1O` (configuration not stated) was run?
Its IC50 is > 80 µM (inactive).

`COc1ccccc1C(=O)Nc1nc2ccccc2s1` was tested. Which IC50 did it give?
The IC50 was 0.53 µM.

`Cc1cc(C)c(CN2CCN(C(=O)Cn3cnc4c(OCc5ccccc5)ncnc43)CC2)c(C)c1` was tested. Which IC50 did it give?
Its IC50 is > 80 µM (inactive).

`CC1(C)C[C@H]2C=C(C=O)[C@]3(C=O)C[C@]3(C)[C@H]2C1` was tested. Which IC50 did it give?
Its IC50 is 7.97 µM.

How did the IC50 turn out when `C/C=C(\C)C(=O)N[C@@H](c1ccccc1)[C@@H](O)C(=O)O[C@H]1C[C@@]2(O)[C@@H](OC(=O)c3ccccc3)C3[C@](C)(C(=O)[C@H](O)C(=C1C)C2(C)C)[C@@H](O)C[C@H]1OC[C@@]31OC(C)=O` (some centres not stated) was run?
Its IC50 is > 80 µM (inactive).

How did the IC50 turn out when `Cc1ccc2c(c1)COc1c3ccc(C(=O)O)cc3nn1-2` was run?
Its IC50 is 13.4 µM.

`CN(Cc1ccccc1)C1=CC(=[N+]2CCCCC2)CC(C)(C)C1` was tested. Which IC50 did it give?
The IC50 was > 80 µM (inactive).

Which IC50 does the source give for `CCN(c1ccccc1)S(=O)(=O)c1ccc(C(=O)NC2CCN(Cc3ccccc3)CC2)cc1` here?
The IC50 was > 80 µM (inactive).

For `CCc1ccc2nc(SCC(=O)Nc3ccccc3N3CCOCC3)c(C#N)cc2c1`, which IC50 is on record?
The IC50 was > 80 µM (inactive).

For `C/C=C(\C)C(=O)N[C@@H](c1ccccc1)[C@@H](O)C(=O)O[C@H]1C[C@@]2(O)[C@@H](OC(=O)c3ccccc3)C3[C@](C)(C(=O)[C@H](OC(C)=O)C(=C1C)C2(C)C)[C@@H](O)C[C@H]1OC[C@@]31OC(C)=O` (some centres not stated), which IC50 is on record?
The IC50 was > 80 µM (inactive).

For `CCCCS(=O)(=O)/C=C\C=C/S(=O)(=O)CCCC`, which IC50 is on record?
The IC50 was 3.51 µM.

`O=S1(=O)C=C(Sc2nc3ccccc3s2)c2ccccc21` was tested. Which IC50 did it give?
Its IC50 is 0.32 µM.

`Cc1cccc(N2CCN(C(=O)c3ccc4[nH]c(C)c(C)c4c3)CC2)c1C` was tested. Which IC50 did it give?
The IC50 was > 80 µM (inactive).

With `Cc1c(C)c2cccnc2c2ncccc12` as the compound, how does the IC50 read?
The IC50 was 6.81 µM.

Which IC50 does the source give for `O=C(Nc1ccncc1)C1CCCN(S(=O)(=O)c2cccc3cccnc23)C1` (configuration not stated) here?
The IC50 was > 80 µM (inactive).

How did the IC50 turn out when `COc1ccc(C(=O)N2CCN(c3ccc([N+](=O)[O-])c(NCCc4ccc(OC)c(OC)c4)c3)CC2)cc1` was run?
The IC50 was > 80 µM (inactive).

Which IC50 does the source give for `Cc1c(C(=O)N2CCOCC2)[nH]c2c1C(=O)CC(c1ccccc1Cl)C2` (configuration not stated) here?
Its IC50 is > 80 µM (inactive).

For `CCOC(=O)c1ccccc1NC(=O)Cn1c(-c2nonc2N)nc2ccccc21`, which IC50 is on record?
The IC50 was > 80 µM (inactive).

Which IC50 does the source give for `COc1ccc(OC)c(-c2nnc3n2N=C(c2ccc(OC)c(OC4CCCC4)c2)CS3)c1` here?
The IC50 was 35.3 µM (inactive).

Which IC50 does the source give for `Cc1cccc(OCCNC(=O)c2ccc(Cl)c(S(=O)(=O)NCc3cccnc3)c2)c1` here?
The IC50 was > 80 µM (inactive).

Which IC50 does the source give for `COc1ccc(CNS(=O)(=O)c2cc(-c3cc(C)no3)ccc2C(C)C)cc1` here?
The IC50 was > 80 µM (inactive).

`COC(=O)c1c(NC(=O)c2ccc([N+](=O)[O-])o2)sc2c1CCN(C(C)C)C2` was tested. Which IC50 did it give?
Its IC50 is 15 µM.
